# Results taken from patent publication US12649008B2, “Peptide receptor radionuclide therapy” (The Regents of the University of California, priority 2020, dated 2026).
# Entries after “also recorded” stand apart in the source; their conditions may differ.
# Experiments:
# [1] = system: integrin αvβ6(+) BxPC-3 cells; experiment: Cell binding, internalization and efflux; details: 37° C.
# human serum proteins = experiment: Serum protein (albumin) binding by ultrafiltration, human serum; type: in vitro ADME; details: 37° C.
# Protocol: The devices were pre-treated with PBS containing Tween 20 (5% v/v) as disclosed in Hausner 2007, followed by triplicate rinses with PBS. An aliquot of each formulated radiotracer in PBS (≤25 μL, 20-60 KBq) was thoroughly mixed with 0.5 mL serum at 37° C. in a microfuge tube. The mixture was incubated at 37° C. for 5 min and an aliquot (50 μL) of was transferred to a tube for γ-counting. The remaining sample was transferred to a Centrifree Ultrafiltration device and centrifuged for 40 min. at 1500×g at ambient temperature (20-24° C.). An aliquot (50 μL) of the filtrate was transferred to a tube for γ-counting. For each radiotracer, a blank was run using 0.5 mL PBS/Tween 20 (5% v/v) instead of serum (n=4) to determine non-specific binding. Following γ-counting, the protein-bound radioactivity was calculated by subtracting the counts measured in the filtrate aliquot (i.e., not protein bound) from the counts in the corresponding serum aliquot. The data are expressed as mean±standard deviation of fraction of radioactivity bound to protein after subtraction of non-specific binding determined in the blank.
# [2] = system: locally advanced, unresectable or metastatic pancreatic adenocarcinoma; experiment: Single institution pilot study, 3+3 dose escalation; type: in vivo, human; details: individual patients
# Description: Patients first underwent a single microdose of [^68Ga]Ga DOTA-5G PET/CT to assess eligibility for the [^177Lu]Lu DOTA-ABM-5G therapy. Only patients with sufficient lesion uptake (any visualized lesion with SUVmax>2-fold above normal lung or liver) were offered therapy with [^177Lu]Lu DOTA-ABM-5G. The study was designed as a 3+3 dose escalation study with [^177Lu]Lu DOTA-ABM-5G. The treatment regimen consisted of one dose of [^177Lu]Lu DOTA-ABM-5G. The 3+3 design included three patients for the first activity level group (25 mCi) (see Table 4, below). Dose-limiting toxicity (DLT) is defined as any treatment related AE≥grade 3 (G3). In addition, the radiation dose to the kidneys must not exceed 23 Gy and the dose to the bone marrow must not exceed 1.5 Gy. If no DLT occurs within 30 days (after the third patient), 3 patients were then enrolled at the next dose level. Should a patient not be available for complete evaluation of treatment related toxicity within the 30 day DLT window due to non-treatment related issues, the patient was replaced for the purpose of DLT assessment at the same dose level. If DLT attributable to the study treatment is experienced in exactly ⅓ subjects in the first course, 3 more patients (for a total of 6) are treated at that dose level. The dose was escalated if no additional DLT is observed at the expanded dose level (i.e., ⅙ with DLT). Escalation stops as soon as two or more subjects experience DLT attributable to the study drugs. The highest dose (200 mCi limit) with no more than one DLT out of six patients is recommended for Phase II. The radiation dose to the kidneys must not exceed 23 Gy and the dose to the bone marrow must not exceed 1.5 Gy.
# Patients deemed eligible based on the [^68Ga]Ga DOTA-5GPET/CT were scheduled to receive one dose of the [^177Lu]Lu DOTA-ABM-5G therapy within 4 weeks (±7 days) of the [^68Ga]Ga DOTA-5G scan. […] For renal protection purpose, a 4-hour co-infusion of an amino acid solution (containing L-lysine [between 18 g and 24 g] and L-arginine [between 18 g and 24 g] was started 30 minutes prior to the infusion of [^177Lu]Lu DOTA-ABM-5G and continued at a constant rate (250 cc/hr) for a total of 4 hours. The patient was monitored for one hour after completion of the amino acid solution infusion. Administration of the amino acid solution before, during and after the [^177Lu]Lu DOTA-ABM-5G therapy was based on experience with Lu-177 DOTATATE to flush the radionuclide through the proximal tubules and decrease the radiation dose to the kidneys. […]
# The biodistribution and dosimetry was evaluated using nuclear imaging at 1 day and 7 days post-infusion of [^177Lu]Lu DOTA-ABM-5G. […]
compound,measurement,setting,value
CNC(=O)C(CCCCNC(=O)C(CC(=O)O)NC(=O)CCCNC(=O)CCCc1ccc(I)cc1)NC(=O)CN1CCN2CCN3CCN(CC1)CC(=O)[O][177Lu]([O]C(=O)C2)[O]C(=O)C3 (centres unmarked) [[^177Lu]Lu DOTA-ABM-5G],bound to BxPC-3 cells (of total radioactivity),[1]; 1 h,29±1.4%
same,internalized into BxPC-3 cells (of total radioactivity),[1]; 1 h,21.6±0.01%
same,efflux from BxPC-3 cells,[1]; at 1 hour post-internalization,5%
same,albumin (serum protein) binding,human serum proteins,58.1±0.4%
same,Current status,[2]; Dose Level 1 (25 mCi),"alive, increase in metastatic; also recorded: alive, stable disease; also recorded: Deceased (patient deteriorated"
same,Renal function over 90 days,[2]; Dose Level 1 (25 mCi),no change
same,Current status,[2]; Dose Level 2 (50 mCi),"alive, no evidence of liver; also recorded: alive"
same,Renal function over 90 days,[2]; Dose Level 2 (50 mCi),no change
